The conditions of series [1]: male, SD, rat, in vivo, iv, 0.88 mg/kg, 1 h.
Description: (§1) The vehicle for the IV, subcutaneous, PO and IN formulation contained “0.1% sodium metabisulfite solution”.
(§2) Male SD rats were purchased from Si Bei Fu Laboratory Animal Technology Co. Ltd (Beijing, China). The animals were about 8 weeks old with body weights of 200-300 g on the dosing date. The animals were housed in a 12-hour light/12-hour dark cycle environment and had free access to food and water. All animals were fasted overnight and fed after 4 hours collection.
(§3) Plasma samples were collected from jugular vein at each time point after IV, subcutaneous, PO and IN administrations.
(§4) About 200 μL of blood samples were collected from each animal via jugular vein. These blood samples were placed into the tubes containing K2EDTA. And centrifugation at 3000 g for 10 minutes in a 4° C. centrifuge. The completion time from collection was less than 30 min. The stabilizing agent of ascorbic acid at 200 mg/mL was added in a proportion of 10% in plasma. The plasma samples were stored in a freezer at −75±15° C. prior to analysis. The completion time from collection was less than 60 min.
(§5) Calibration standard working solutions were prepared at concentrations of 2, 5, 10, 20, 50, 100, 500, 1000, 5000 and 10000 ng/mL by serial dilution of the standard stock solution in 50% acetonitrile in water. Quality control working solutions at concentrations of 5, 10, 20, 500 and 8000 ng/mL were prepared by serial dilution of the standard stock solution in 50% acetonitrile in water. These QC samples were prepared on the day of analysis in the same way as calibration standards.
(§6) For plasma samples, 2 μL of each calibration standard working solution (2, 5, 10, 20, 50, 100, 500, 1000, 5000 and 10000 ng/mL) was added to 20 μL of the blank SD rat plasma (with 10% 200 mg/mL ascorbic acid) to achieve calibration standards of 0.2-1000 ng/mL (0.2, 0.5, 1, 2, 5, 10, 50, 100, 500, 1000 ng/mL) in a total volume of 22 μL. Quality Control (QC) samples at 0.5 ng/mL (low-1), 1 ng/mL (low-2) and 2 ng/mL (low-3), 50 ng/mL (mid), 800 ng/mL (high) for plasma were prepared independently for those used for the calibration curves. These QC samples were prepared on the day of analysis in the same way as calibration standards. The total volumes of 22 μL of standards, 22 μL of QC samples and 22 μL of unknown samples (20 μL of unknown plasma (with 10% 200 mg/mL ascorbic acid) with 2 μL 50% acetonitrile) were added to 200 μL of acetonitrile containing IS to precipitate proteins. Then the samples were vortexed for 30 sec. After centrifugation at 4° C., 4700 rpm for 30 min, and supernatant was diluted 2 times with water, 10 μL of the diluted supernatant was injected into the LC-MS/MS system for quantitative analysis.
All the samples were processed on ice.
(§7) The LC-MS/MS system consisted of two Shimadzu LC-30AD pumps, a DGU-20A5R degasser, a Rack changer II and LCMS-8060 LC/MS/MS instrument mass spectrometer.
(§8) OD-3R Particle size 3 μm 4.6 mm×150 mm column at room temperature. The mobile phase was composed of A: Water (5 mM Ammonium Acetate); B: Ethanol (5 mM Ammonium Acetate). The flow rate was 0.5 mL/min. The injection volume was 10 μL.
(§9) A multiple reaction monitoring (MRM) method was selected for quantitative analysis. […] The instrument parameters were set as follows: ion spray voltage: 8060; heating gas flow: 10 L/min; interface temperature: 250° C.; DL temperature: 220° C.; heat block temperature: 400° C.; drying gas flow: 10 L/min.
(§10) Data acquisition was performed by Lab Solutions version 5.89 Software (Shimadzu). All concentration data was reported with 3 significant figures. Data statistics were performed using Excel 2010 software.
(§11) The linear trapezoidal algorithm was used for AUC calculation.
The nature of series [2]: in vivo. The settings on record: male, C57BL/6J, mouse.
Description: (§12) 9 male C57BL/6J mice following administration of a single subcutaneous dose of 4.40 mg/kg. The vehicle for the subcutaneous formulation contained “0.1% sodium metabisulfite solution”.
(§13) Male C57BL/6J mice were purchased from Si Bei Fu Laboratory Animal Technology Co. Ltd (Beijing, China). The animals were about 8 weeks old with body weights of 20-30 g on the dosing date. The animals were housed in a 12-hour light/12-hour dark cycle environment and had free access to food and water. All animals were fasted overnight and fed after 4 hours collection.
(§14) For group 1, plasma samples were collected from dorsal metatarsal vein at each time point after subcutaneous administrations.
(§15) For plasma samples, about 30 μL or 300 μL of blood samples were collected from each animal via dorsal metatarsal vein or heart. These blood samples were placed into the tubes containing K2EDTA. And centrifugation at 3000 g for 10 minutes in a 4° C. centrifuge. The completion time from collection was less than 30 min. The stabilizing agent of ascorbic acid at 200 mg/mL was added in a proportion of 10% in plasma. The plasma samples were stored in a freezer at −75±15° C. prior to analysis. The completion time from collection was less than 60 min.
(§16) For brain and CSF samples, The animals were fully exsanguinated with a rising concentration of CO2 gas prior to CSF and brain collection.
(§17) For CSF collection, incision was made by scissors on the neck of the rats to expose the foramen magnum. A syringe fitted with a venoclysis needle was used to sample the CSF, the tip of the needle was inserted into the membrane of foramen magnum about 1-2 mm, and a negative pressure was applied by pulling a stopcock a small length of the syringe to extract CSF fluids into a tube. The stopcock was further actuated to until a sufficient amount of CSF was collected. There should be no blood in the CSF fluid. A stabilizing agent of ascorbic acid at 200 mg/mL was added in a proportion of 10% in CSF.
(§18) For brain collection. Brain samples were collected at an adopted time point, and washed 3 times with cold saline, then dried with clean gauze and put into the weighed tube, quick frozen in an ice box and kept at −75±15° C. All brain samples were weighted and homogenized with phosphate buffered saline (PBS) by brain weight (g) to PBS volume (mL) ratio 1:3 before analysis. The stabilizing agent of ascorbic acid at 200 mg/mL was added in a proportion of 10% in grain homogenate. The actual concentration was the detected value multiplied by the dilution factor. Brain samples were collected at designed time point, quickly homogenized and kept at −75±15° C.
(§19) Calibration standard working solutions were prepared at concentrations of 2, 5, 10, 20, 50, 100, 500, 1000, 5000 and 10000 ng/mL by serial dilution of the standard stock solution in 50% acetonitrile in water. Quality control working solutions at concentrations of 5, 10, 500 and 8000 ng/mL were prepared by serial dilution of the standard stock solution in 50% acetonitrile in water. These QC samples were prepared on the day of analysis in the same way as calibration standards.
(§20) For plasma and brain samples, 3 μL of each calibration standard working solution (2, 5, 10, 20, 50, 100, 500, 1000, 5000 and 10000 ng/mL) was added to 30 μL of the blank C57BL/6J mouse plasma or brain homogenate (with 10% 200 mg/mL ascorbic acid) to achieve calibration standards of 0.2-1000 ng/mL (0.2, 0.5, 1, 2, 5, 10, 50, 100, 500, 1000 ng/mL) in a total volume of 33 μL. Quality Control (QC) samples at 0.5 ng/mL (low-1), 1 ng/mL (low-2), 50 ng/mL (mid), 800 ng/mL (high) for plasma were prepared independently for those used for the calibration curves. These QC samples were prepared on the day of analysis in the same way as calibration standards.
Series [3] is described as follows: Pharmacokinetic and brain penetration study, single subcutaneous dose, male C57BL/6J mouse (plasma, CSF, brain). Conditions: in vivo, sc, 0.0367 mg/kg.
Description: as §12, §13, §14, §15, §16, §17, §18, §19, §20
For series [4] the following is noted: mouse, in vivo.
Description: as §12, §13, §14, §15, §16, §17, §18, §19, §20
The nature of series [5]: in vivo. Conditions: male, SD, rat, iv, 0.88 mg/kg.
Description: as §1, §2, §3, §4, §5, §6
All the samples were processed on ice.
as §7, §8, §9, §10, §11
A short description of series [6]: Solubility in aqueous media / aqueous buffer solutions. Conditions: hydrochloride salt, aqueous buffer solutions. It counts as physicochemical.

In general, AUC(0-t) refers to exposure summed from dosing to a finite time, without extrapolation to infinity. Low values mean low exposure, high ones high exposure. As a reminder, the AUC(0-inf) is total exposure, with the tail of the curve extrapolated. Read a high AUC(0-inf) as more exposure. What is called Cmax is the highest concentration seen after dosing. Usually MRT inf stands for the average time that molecules of a dose stay in the body. One may read the Tmax as the time at which the peak concentration occurs.

Values joined by “and” are separate entries in the source; they are usually repeats but may differ in a detail not shown here. Identical values can stand only once. Like-named read-outs stand apart in the source and are kept apart here.

Turning to `CN1CCc2cccc3c2[C@H]1Cc1ccc(O)c(O)c1-3`, the plasma concentration in series [1] is 0.207 ng/mL; in series [4], “BLOQ”. Moreover, the concentration at […] in series [2] (0.0367 mg/kg, plasma concentration) was 10.1 ng/mL; in series [2] (brain concentration, Mean) it was 48.4 ng/g; in series [2] (plasma concentration) it was 7.46 ng/mL and 8.5 ng/mL; in series [2] (plasma concentration, Mean), 6.5 ng/mL and 8.16 ng/mL. The concentration at 0.5 h in series [2] (brain concentration, Conc. (ng/g)) came to 38 ng/g; in series [2] (brain concentration, Conc. (ng/mL)) it was 7.6 ng/mL; in series [2] (brain concentration, Mean) it was 39.6 ng/g; in series [2] (plasma concentration), 5.06 ng/mL; in series [2] (plasma concentration, Mean), 5.15 ng/mL; in series [5] (mean plasma concentration), 0.559 ng/mL. In series [5] (plasma concentration), this compound had a concentration at 0.5 h of 0.582 ng/mL. In addition, the concentration at 1 h in series [2] (plasma concentration) turned out to be 1.82 ng/mL; in series [2] (plasma concentration, Mean) it was 1.65 ng/mL; in series [5] (mean plasma concentration) it was 0.232 ng/mL; in series [5] (plasma concentration), 0.257 ng/mL. The compound further had an AUC(0-t) in series [2] (sc, 0.0367 mg/kg, AUClast) of 5.1 ng·h/mL. In addition, the AUC(0-inf) in series [2] (sc, 0.0367 mg/kg, AUC∞) is 5.99 ng·h/mL. Also, the Cmax in series [2] (sc, 0.0367 mg/kg, Cmax) was determined as 8.56 ng/mL; in series [3] it was 7.78 ng/mL. The same compound showed a mean residence time (MRT inf) in series [2] (sc, 0.0367 mg/kg, MRTInf) of 32.5 min. The Tmax in series [4] (male, C57BL/6J, sc, 0.0367 mg/kg) amounted to 11.7 min. In addition, the results for the concentration at 2 min in series [5] (mean plasma concentration) and in series [5] (plasma concentration) were 3.75 ng/mL and 3.85 ng/mL, respectively.
Regarding `CN1CCc2cccc3c2[C@@H]1Cc1ccc(O)c(O)c1-3.Cl`, in series [6], the solubility result is listed as “low solubility”.

The values are drawn from US20230141988A1, “PHARMACEUTICAL COMPOSITION FOR USE IN THE TREATMENT OF NEUROLOGICAL DISEASES” (Aclipse One Inc., priority 2020, published 2023).
